What was measured:
[1] = xn = mol fraction of the nth substance listed; settings: 101 kPa, Liquid
[2] = refractive index (Na D-line) (dimensionless); xn = mol fraction of the nth substance listed; settings: 101 kPa, Liquid

ClC(Cl)C(Cl)Cl [1,1,2,2-tetrachloroethane] + COc1ccccc1
Settings	mass density, 298.15 K [kg/m3]	mass density, 303.15 K [kg/m3]	mass density, 308.15 K [kg/m3]	refractive index, 298.15 K	refractive index, 303.15 K	refractive index, 308.15 K	speed of sound, 298.15 K [m/s]	viscosity, 298.15 K [mPa·s]	viscosity, 303.15 K [mPa·s]	viscosity, 308.15 K [mPa·s]
[1], x2 = 0	1587.8	1580.6	1573.3	–	–	–	1153	1.591	1.471	1.361
[1], x2 = 0.1003	1526.3	1519.4	1512.6	–	–	–	1172	1.555	1.439	1.323
[1], x2 = 0.2021	1464.3	1457.7	1451.2	–	–	–	1193	1.518	1.404	1.29
[1], x2 = 0.303	1403.1	1396.9	1390.6	–	–	–	1214	1.47	1.362	1.253
[1], x2 = 0.3939	1348.3	1342.2	1336.2	–	–	–	1235	1.419	1.315	1.21
[1], x2 = 0.4986	1285.5	1279.9	1274	–	–	–	1262	1.355	1.255	1.155
[1], x2 = 0.5975	1226.5	1221.1	1215.6	–	–	–	1289	1.292	1.196	1.1
[1], x2 = 0.6972	1167.2	1162.1	1156.9	–	–	–	1317	1.224	1.131	1.038
[1], x2 = 0.7983	1107.6	1102.7	1097.7	–	–	–	1347	1.149	1.064	0.979
[1], x2 = 0.9012	1047	1042.8	1037.4	–	–	–	1379	1.074	0.994	0.914
[2], x2 = 0	–	–	–	1.4922	1.4894	1.4865	–	–	–	–
[2], x2 = 0.1003	–	–	–	1.4943	1.4915	1.4887	–	–	–	–
[2], x2 = 0.2021	–	–	–	1.4966	1.4937	1.4909	–	–	–	–
[2], x2 = 0.303	–	–	–	1.4989	1.496	1.4931	–	–	–	–
[2], x2 = 0.3939	–	–	–	1.5009	1.498	1.4952	–	–	–	–
[2], x2 = 0.4986	–	–	–	1.5032	1.5005	1.4977	–	–	–	–
[2], x2 = 0.5975	–	–	–	1.5055	1.5028	1.5	–	–	–	–
[2], x2 = 0.6972	–	–	–	1.508	1.5052	1.5023	–	–	–	–
[2], x2 = 0.7983	–	–	–	1.5105	1.5076	1.505	–	–	–	–
[2], x2 = 0.9012	–	–	–	1.5129	1.51	1.5072	–	–	–	–

COc1ccccc1 [anisole] + C[S+](C)[O-]
Settings	mass density, 298.15 K [kg/m3]	mass density, 303.15 K [kg/m3]	mass density, 308.15 K [kg/m3]	refractive index, 298.15 K	refractive index, 303.15 K	refractive index, 308.15 K	speed of sound, 298.15 K [m/s]	viscosity, 298.15 K [mPa·s]	viscosity, 303.15 K [mPa·s]	viscosity, 308.15 K [mPa·s]
[1], x1 = 0.0938	1081.5	1077	1072.3	–	–	–	1487	1.836	1.683	1.529
[1], x1 = 0.2016	1066.7	1062.1	1057.6	–	–	–	1477	1.691	1.549	1.407
[1], x1 = 0.3025	1054.4	1049.9	1045.3	–	–	–	1468	1.565	1.438	1.31
[1], x1 = 0.3987	1043.6	1039.2	1034.7	–	–	–	1462	1.466	1.347	1.228
[1], x1 = 0.5074	1032.5	1027.9	1023.6	–	–	–	1454	1.369	1.268	1.166
[1], x1 = 0.594	1024.1	1019.7	1015.1	–	–	–	1445	1.318	1.219	1.119
[1], x1 = 0.6956	1014.7	1010.3	1005.7	–	–	–	1437	1.249	1.152	1.054
[1], x1 = 0.7988	1005.5	1001.4	996.7	–	–	–	1428	1.157	1.073	0.989
[1], x1 = 0.8933	997.4	992.8	988.5	–	–	–	1421	1.077	1.004	0.931
[1], x1 = 1	988.9	984.1	979.4	–	–	–	1410	0.992	0.919	0.853
[2], x1 = 0.0938	–	–	–	1.4817	1.4772	1.4727	–	–	–	–
[2], x1 = 0.2016	–	–	–	1.4878	1.4853	1.4828	–	–	–	–
[2], x1 = 0.3025	–	–	–	1.4929	1.4901	1.4873	–	–	–	–
[2], x1 = 0.3987	–	–	–	1.4962	1.4935	1.4906	–	–	–	–
[2], x1 = 0.5074	–	–	–	1.4996	1.4974	1.4952	–	–	–	–
[2], x1 = 0.594	–	–	–	1.5031	1.5006	1.498	–	–	–	–
[2], x1 = 0.6956	–	–	–	1.5069	1.5043	1.5017	–	–	–	–
[2], x1 = 0.7988	–	–	–	1.5105	1.5075	1.5046	–	–	–	–
[2], x1 = 0.8933	–	–	–	1.5124	1.5096	1.5069	–	–	–	–
[2], x1 = 1	–	–	–	1.5148	1.5124	1.5092	–	–	–	–

COc1ccccc1 [anisole] + ClC(Cl)C(Cl)Cl
x1 = 1
Settings	mass density, 298.15 K [kg/m3]	mass density, 303.15 K [kg/m3]	mass density, 308.15 K [kg/m3]	refractive index, 298.15 K	refractive index, 303.15 K	refractive index, 308.15 K	speed of sound, 298.15 K [m/s]	viscosity, 298.15 K [mPa·s]	viscosity, 303.15 K [mPa·s]	viscosity, 308.15 K [mPa·s]
[1]	988.9	984.1	979.4	–	–	–	1410	0.992	0.919	0.853
[2]	–	–	–	1.5148	1.5124	1.5092	–	–	–	–

COc1ccccc1 [anisole] + ClC(Cl)=C(Cl)Cl
x1 = 1
Settings	mass density, 298.15 K [kg/m3]	mass density, 303.15 K [kg/m3]	mass density, 308.15 K [kg/m3]	refractive index, 298.15 K	refractive index, 303.15 K	refractive index, 308.15 K	speed of sound, 298.15 K [m/s]	viscosity, 298.15 K [mPa·s]	viscosity, 303.15 K [mPa·s]	viscosity, 308.15 K [mPa·s]
[1]	988.9	984.1	979.4	–	–	–	1410	0.992	0.919	0.853
[2]	–	–	–	1.5148	1.5124	1.5092	–	–	–	–

CN(C)C=O [dimethylformamide] + COc1ccccc1
x2 = 0
Settings	mass density, 298.15 K [kg/m3]	mass density, 303.15 K [kg/m3]	mass density, 308.15 K [kg/m3]	refractive index, 298.15 K	refractive index, 303.15 K	refractive index, 308.15 K	speed of sound, 298.15 K [m/s]	viscosity, 298.15 K [mPa·s]	viscosity, 303.15 K [mPa·s]	viscosity, 308.15 K [mPa·s]
[1]	943.9	939.5	935	–	–	–	1462	0.801	0.754	0.711
[2]	–	–	–	1.4288	1.4264	1.4238	–	–	–	–

COc1ccccc1 [anisole] + OCCCl
x1 = 1
Settings	mass density, 298.15 K [kg/m3]	mass density, 303.15 K [kg/m3]	mass density, 308.15 K [kg/m3]	refractive index, 298.15 K	refractive index, 303.15 K	refractive index, 308.15 K	speed of sound, 298.15 K [m/s]	viscosity, 298.15 K [mPa·s]	viscosity, 303.15 K [mPa·s]	viscosity, 308.15 K [mPa·s]
[1]	988.9	984.1	979.4	–	–	–	1410	0.992	0.919	0.853
[2]	–	–	–	1.5148	1.5124	1.5092	–	–	–	–

C[S+](C)[O-] [dimethyl sulfoxide] + COc1ccccc1
x2 = 0
Settings	mass density, 298.15 K [kg/m3]	mass density, 303.15 K [kg/m3]	mass density, 308.15 K [kg/m3]	refractive index, 298.15 K	refractive index, 303.15 K	refractive index, 308.15 K	speed of sound, 298.15 K [m/s]	viscosity, 298.15 K [mPa·s]	viscosity, 303.15 K [mPa·s]	viscosity, 308.15 K [mPa·s]
[1]	1095.4	1090.8	1086.2	–	–	–	1493	1.984	1.801	1.651
[2]	–	–	–	1.4768	1.4594	1.4547	–	–	–	–

Reference: the NIST ThermoML archive (doi:10.1021/je049610v)
